Results taken from patent publication US7351728B2, “Oxazolyl-aryloxyacetic acid derivatives and their use as PPAR agonists” (Eli Lilly and Company, priority 2003, dated 2008).

The molecules below were run on db/db mice (assay: Evaluation of glucose levels in db/db mice). Settings: Mus musculus, 168 h; 30 mg/kg daily oral gavage 7 days, male db/db mice; 100% = lean values; read-out: Glucose Normalization %.
Assay type: in vivo
Procedure: Five week old male diabetic (db/db) mice [C57BlKs/j-m +/+ Lepr(db), Jackson Laboratory, Bar Harbor, Me.] or lean littermates (db+) were housed 6 per cage (10″×20″×8″ with aspen chip bedding) with food (Purina 5015) and water available at all times. After an acclimation period of 2 weeks, animals were individually identified by ear notches, weighed, and bled via the tail vein for determination of initial glucose levels. Blood was collected (100 μl) from unfasted animals by wrapping each mouse in a towel, cutting the tip of the tail with a scalpel, and milking blood from the tail into a heparinized capillary tube (Fisher) balanced on the edge of the bench. Sample was discharged into a heparinized microtainer with gel separator (VWR) and retained on ice. Plasma was obtained after centrifugation at 4° C. and glucose measured immediately. Remaining plasma was frozen until the completion of the experiment, when glucose and triglycerides were assayed in all samples. Animals were grouped based on initial glucose levels and body weights. Beginning the following morning, mice were dosed daily by oral gavage for 7 days using a 20 gauge, 1½″ curved disposable feeding needle. Treatments were test compounds (30 mg/kg), a positive control agent (30 mg/kg) or vehicle [1% carboxymethylcellulose (w/v)/0.25% Tween80 (w/v); 0.3 ml/mouse]. On day 7, mice were weighed and bled (tail vein) 3 hours after dosing. Twenty-four hours after the 7th dose (i.e., day 8), animals were bled again (tail vein). Samples obtained from conscious animals on days 0, 7 and 8 were assayed for glucose. After the 24 hour bleed, animals were weighed and dosed for the final time. Three hours after dosing on day 8, animals were anesthetized by inhalation of isoflurane and blood obtained via cardiac puncture (0.5-0.7 ml). Whole blood was transferred to serum separator tubes, chilled on ice and permitted to clot. Serum was obtained after centrifugation at 4° C. and frozen until analysis for compound levels. After sacrifice by cervical dislocation, the liver, heart and epididymal fat pads were excised and weighed.
The animals dosed with vehicle had average triglycerides values of 170-230 mg/dl, which were reduced by the positive PPARγ control (70-120 mg/dl with a mean reduction of 50%). Male db/db mice were hyperglycemic (average glucose of 680-730 mg/dl on the 7th day of treatment), while lean animals had average glucose levels between 190-230 mg/dl.
Glucose was measured colorimetrically using commercially purchased reagents (Sigma #315-500). According to the manufacturers, the procedures were modified from published work (McGowan, M. W., Artiss, J. D., Strandbergh, D. R. & Zak, B. Clin Chem, 20:470-5 (1974) and Keston, A. Specific colorimetric enzymatic analytical reagents for glucose. Abstract of papers 129th Meeting ACS, 31C (1956).); and depend on the release of a mole of hydrogen peroxide for each mole of analyte, coupled with a color reaction first described by Trinder (Trinder, P. Determination of glucose in blood using glucose oxidase with an alternative oxygen acceptor. Ann Clin Biochem, 6:24 (1969)). The absorbance of the dye produced is linearly related to the analyte in the sample. The assays were further modified in our laboratory for use in a 96 well format. Standards (Sigma #339-11, Sigma #16-11, and Sigma #CC0534 for glucose triglycerides and total cholesterol, respectively), quality control plasma (Sigma # A2034), and samples (2 or 5 μl/well) were measured in duplicate using 200 μl of reagent. An additional aliquot of sample, pipetted to a third well and diluted in 200 μl water, provided a blank for each specimen. Plates were incubated at room temperature (18, 15, and 10 minutes for glucose, triglycerides and total cholesterol, respectively) on a plate shaker (DPC Micormix 5) and absorbance read at 500 nm (glucose and total cholesterol) or 540 nm (triglycerides) on a plate reader (Wallac Victor 1420). […]

SMILES	inhibition in vivo at 30 mg/kg [%]
CCc1cc(OCCc2nc(-c3ccccc3)oc2C)ccc1OC(C)(C)C(=O)O [Example 30A, 2-{2-Ethyl-4-[2-(5-methyl-2-phenyloxazol-4-yl)ethoxy]phenoxy}2-methylpropionic acid]	76
Cc1cc(OCCc2nc(-c3ccccc3)oc2C)ccc1OC(C)(C)C(=O)O [Example 24, 2-Methyl-2-{2-methyl-4-[2-(5-methyl-2-phenyloxazol-4-yl)ethoxy]phenoxy}propionic acid]	72
CCCCc1cc(OC(C)(C)C(=O)O)ccc1OCCc1nc(-c2ccccc2)oc1C [Example 31F, 2-{3-Butyl-4-[2-(5-methyl-2-phenyloxazol-4-yl)ethoxy]phenoxy}-2-methylpropionic acid]	77
CCc1ccc(-c2nc(CCOc3ccc(OC(C)(C)C(=O)O)cc3)c(C)o2)cc1 [Example 13, 2-(4-{2-[2-(4-Ethylphenyl)-5-methyloxazol-4-yl]ethoxy}phenoxy)-2-methylpropionic acid]	65
CCCc1cc(OCCc2nc(-c3ccccc3)oc2C)ccc1OC(C)(C)C(=O)O [Example 26A, 2-Methyl-2-{4-[2-(5-methyl-2-phenyloxazol-4-yl)ethoxy]-2-propylphenoxy}propionic acid]	77
CCc1cccc(-c2nc(CCOc3ccc(OC(C)(C)C(=O)O)cc3)c(C)o2)c1 [Example 12, 2-(4-{2-[2-(3-Ethylphenyl)-5-methyloxazol-4-yl]ethoxy}phenoxy)-2-methylpropionic acid]	101
Cc1oc(-c2cccc(CCc3ccccc3)c2)nc1CCOc1ccc(OC(C)(C)C(=O)O)cc1 [Example 12A, 2-Methyl-2-(4-{2-[5-methyl-2-(3-phenethylphenyl)oxazol-4-yl]ethoxy}phenoxy)-propionic acid]	51
Cc1oc(-c2cccc(Br)c2)nc1CCOc1ccc(OC(C)(C)C(=O)O)cc1 [Example 9A, 2-(4-{2-[2-(3-Bromophenyl)-5-methyloxazol-4-yl]ethoxy}phenoxy)-2-methylpropionic acid]	86
Cc1oc(-c2ccccc2)nc1CCOc1ccc(OC(C)(C)C(=O)O)cc1 [Example 1, 2-Methyl-2-{4-[2-(5-methyl-2-phenyloxazol-4-yl)ethoxy]phenoxy}propionic acid]	38
CCCc1cc(OCCc2nc(-c3ccccc3)oc2C)ccc1OCC(=O)O [Example 26, {4-[2-(5-methyl-2-phenyl-oxazol-4-yl)ethoxy]-2-propylphenoxy}acetic acid]	42
Cc1oc(-c2ccccc2)nc1CCOc1ccc(OC(C)(C)C(=O)O)c(CCc2ccccc2)c1 [Example 30J, 2-Methyl-2-{4-[2-(5-methyl-2-phenyloxazol-4-yl)ethoxy]-2-phenethylphenoxy}propionic acid]	58
Cc1oc(-c2ccccc2)nc1CCOc1ccc(OC(C)(C)C(=O)O)c(CC(C)C)c1 [Example 30C, 2-{2-Isobutyl-4-[2-(5-methyl-2-phenyloxazol-4-yl)ethoxy]phenoxy}-2-methylpropionic acid]	48
Cc1oc(-c2ccccc2)nc1CCOc1ccc(OC(C)(C)C(=O)O)c(Cc2ccccc2)c1 [Example 32, 2-{2-Benzyl-4-[2-(5-methyl-2-phenyloxazol-4-yl)ethoxy]phenoxy}-2-methylpropionic acid]	47
Cc1oc(-c2ccc(OC3CCCCC3)cc2)nc1CCOc1ccc(OC(C)(C)C(=O)O)cc1 [Example 21, 2-(4-{2-[2-(4-Cyclohexyloxy-phenyl)-5-methyl-oxazol-4-yl]-ethoxy}-phenoxy)-2-methyl-propionic acid]	23
CCCc1cc(OC(C)(C)C(=O)O)ccc1OCCc1nc(-c2ccccc2)oc1C [Example 27A, 2-Methyl-2-{4-[2-(5-methyl-2-phenyloxazol-4-yl)ethoxy]-3-propylphenoxy}propionic acid]	62
Cc1oc(-c2ccccc2)nc1CCOc1ccc(OC(C)(C)C(=O)O)c2ccccc12 [Example 37, 2-Methyl-2-{4-[2-(5-methyl-2-phenyl-oxazol-4-yl)-ethoxy]-naphthalen-1-yloxy}-propionic acid]	56
Cc1oc(-c2ccccc2)nc1CCOc1ccc(OC(C)(C)C(=O)O)c2c1CCCC2 [Example 38, 2-Methyl-2-{4-[2-(5-methyl-2-phenyl-oxazol-4-yl)-ethoxy]-5,6,7,8-tetrahydro-naphthalen-1-yloxy}-propionic acid]	38
